# Target: T1, CCK-B receptor (Mus musculus, UniProt P56481)
# T1 construct: from tissue; host or cells: cerebral cortex membranes of male CFLP mice
# T1 sequence (P56481 1-453): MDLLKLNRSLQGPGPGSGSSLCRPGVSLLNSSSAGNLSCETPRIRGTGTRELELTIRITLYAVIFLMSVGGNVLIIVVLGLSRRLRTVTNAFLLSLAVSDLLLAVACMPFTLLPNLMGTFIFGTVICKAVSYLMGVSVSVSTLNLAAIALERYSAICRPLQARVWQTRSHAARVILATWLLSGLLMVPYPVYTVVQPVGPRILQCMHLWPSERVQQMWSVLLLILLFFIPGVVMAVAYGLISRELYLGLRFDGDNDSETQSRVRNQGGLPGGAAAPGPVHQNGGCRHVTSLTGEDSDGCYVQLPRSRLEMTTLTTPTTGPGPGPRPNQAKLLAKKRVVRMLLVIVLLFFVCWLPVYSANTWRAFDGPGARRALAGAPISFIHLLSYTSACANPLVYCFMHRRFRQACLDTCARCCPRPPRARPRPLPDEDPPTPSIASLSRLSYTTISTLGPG
# Test: Displacement of tritiated-pentagastrin binding to mouse cerebral cortical membranes (CCK receptor binding)
# Design: species or system male CFLP mice
# Details: displacement of 2 nM tritiated-pentagastrin, Ki by Cheng-Prusoff equation, read-out: Ki, Binding Affinity CCK-B
# Protocol: The biological activity of compounds of the present invention was evaluated employing an initial screening test which rapidly and accurately measured the binding of the tested compound to known CCK receptor sites. […] (See Hays, et al., Neuropeptides 1980;1:53-62; and Satuer, et al., Science 1980;208:1155-6.)
# In this screening test, the cerebral cortices taken from male CFLP mice weighing between 30-40 g were dissected on ice, weighed, and homogenized in 10 volumes of 50 mM Tris-HCl buffer (pH 7.4 at 0-4° C.). The resulting suspension was centrifuged, the supernate was discarded, and the pellet was washed by resuspension in Tris-HCl buffer followed by recentrifugation. The final pellet was resuspended in 20 volumes of […] buffer (pH 7.2 at 23° C.) containing 130 mM NaCl, […], […], […], 5 mg/mL bovine albumin, and bacitracin (0.25 mg/mL).
# In saturation studies, cerebral cortical membranes were incubated at 23° C. for 120 minutes in a final volume of 500 μL of Hepes incubation buffer (pH 7.2) together with 0.2-20 nM tritiated-pentagastrin (Amersham International, England).
# In the displacement experiments, membranes were incubated with a single concentration (2 nM) of ligand, together with increasing concentrations ([…]) of competitive test compound. In each case, the nonspecific binding was defined as that persisting in the presence of the unlabeled octapeptide CCK26-33 (10^-6 M).
# Following incubation, radioactivity bound to membranes was separated from that free in solution by rapid filtration through Whatman GF/B filters and washed three times with 4 mL of ice cold Tris-HCl buffer. Filters from samples incubated with tritiated-pentagastrin were placed in polyethylene vials with 4 mL of scintillation cocktail, and the radioactivity was estimated by liquid scintillation spectrometry (efficiency 47%-52%).
# The specific binding to CCK receptor sites was defined as the total bound tritiated-pentagastrin minus the amount of tritiated-pentagastrin bound in the presence of 10^-6 octapeptide, CCK26-33.
# Saturation curves for specific tritiated-pentagastrin binding to mouse cortical membranes were analyzed by the methods of Scatchard (Ann New York Acad Sci 1949;51:660-72, and Hill, J Physiol 1910;40:IV-VIII), to provide estimates for the maximum number of binding sites (Bmax) and the equilibrium dissociation constant ([…]).
# In displacement experiments, inhibition curves were analyzed by either logit-log plots or the iterative curve fitting computer program ALLFIT (DeLean, Munson, Redbard, 1978) to provide estimates of the IC50 and nH (apparent Hill coefficient) values). (IC50 values were defined as the concentration of test compound required to produce 50% inhibition of specific binding.)
# The inhibition constant (Ki) of the test compound was then calculated according to the Cheng-Prusoff equation: [formula] where [L] is the concentration of radiolabel and Ka is the equilibrium dissociation constant.
row,Compound,Ki [nM]
1,"O=C(Nc1ccc(Cl)cc1)N[C@H](c1ccccc1)[C@H](NC(=O)Nc1ccc(C(F)(F)F)cc1)c1ccccc1 (relative stereo) [Example 10, [R-(R*,R*)] and [S-(R*,R*)]-N-(4-chlorophenyl)-N'-[1,2-diphenyl-2-[[[[4-(trifluoromethyl)phenyl]amino]-carbonyl]amino]ethyl]-urea]",371
2,"O=C(Nc1ccc([N+](=O)[O-])cc1)N[C@H](c1ccccc1)[C@H](NC(=O)Nc1ccc(C(F)(F)F)cc1)c1ccccc1 (relative stereo) [Example 15, [S-(R*,R*)] and [R-(R*,R*)]-N-[1,2-diphenyl-2-[[[[4-(trifluoromethyl)phenyl]amino]carbonyl]amino]-ethyl]-N'-(4-nitrophenyl)urea]",309
3,"Cc1ccc(S(=O)(=O)NC(=O)N[C@H](c2ccccc2)[C@H](NC(=O)Nc2ccc(Cl)cc2)c2ccccc2)cc1 (relative stereo) [Example 46, [R-(R*,R*)] and [S-(R*,R*)]-N-[[[2-[[[(4-chlorophenyl)-amino]carbonyl]amino]-1,2-diphenylethyl]amino]-carbonyl]-4-methyl-benzenesulfonamide]",188
4,"O=C(Nc1ccc(Cl)cc1)N[C@H](c1ccccc1)[C@H](NC(=O)NS(=O)(=O)c1ccccc1)c1ccccc1 (relative stereo) [Example 47, [R-(R*,R*)] and [S-(R*,R*)]-N-[[[2-[[[4-chlorophenyl)-amino]carbonyl]amino]-1,2-diphenylethyl]amino]-carbonyl]benzenesulfonamide]",290
5,"O=C(Nc1ccc(Cl)cc1)N[C@@H](c1ccccc1)[C@@H](NC(=O)Nc1ccc(C(F)(F)F)cc1)c1ccccc1 [Example 65, (+)-[S-(R*,R*)]-N-(4-chlorophenyl)-N'-[1,2-diphenyl]-2-[[[[4-(trifluoromethyl)phenyl]amino]carbonyl]amino]-ethyl]urea]",293

# Other lines, results leading:
row,Ki [nM],Compound
1,188,"Cc1ccc(S(=O)(=O)NC(=O)N[C@H](c2ccccc2)[C@H](NC(=O)Nc2ccc(C(F)(F)F)cc2)c2ccccc2)cc1 (relative stereo) [Example 14, [S-(R*,R*)] and [R-(R*,R*)]-N-[[[1,2-diphenyl-2-[[[[4-(trifluoromethyl)phenyl]amino]carbonyl]amino]-ethyl]amino]carbonyl]-4-methyl-benzenesulfonamide]"
2,178,"Cc1ccc(NC(=O)N[C@H](c2ccccc2)[C@H](NC(=O)NS(=O)(=O)c2ccc(C)cc2)c2ccccc2)cc1 (relative stereo) [Example 54, [R-(R*,R*)] and [S-(R*,R*)]-4-methyl-N-[[[2-[[[(4-methylphenyl)amino]carbonyl]amino]-1,2-diphenylethyl]amino]carbonyl]benzenesulfonamide]"
3,93,"Cc1ccc(S(=O)(=O)NC(=O)N[C@@H](c2ccccc2)[C@@H](NC(=O)Nc2ccc(Cl)cc2)c2ccccc2)cc1 [Example 64, (+)-[S-(R*,R*)]-N-[[[2-[[[(4-chlorophenyl)amino]-carbonyl]amino]-1,2-diphenylethyl]amino]carbonyl]-4-methyl-urea]"

# From patent US6103761A, “Agents acting at cholecystokinin receptors” (Warner-Lambert Company, priority 1994, dated 2000)
